Source: patent publication US20100233701A1, “Use of non-clonal chromosomal aberrations for cancer research and clinical diagnosis” (priority 2008, published 2010)
Peptide text beside a SMILES is read from it. * marks the point of attachment. Cbz = O=C(OCc1ccccc1)*; CH2F = FC*

Columns and labels:
BT549 = test: SKY analysis of NCCAs after proteasome inhibitor treatment; type: cell-based; conditions: following treatment
Excerpt: (§1) Following probe denaturation, hybridization and SKY detection, randomly selected mitotic figures were photographed and analyzed by SKY imaging software. Fifty to hundred SKY images were captured for each cell population to identify commonly shared karyotype features and to reveal the karyotypic diversity of these various cell populations. NCCAs were scored by identifying chromosomal numbers, chromosome translocations/large deletions or other types of abnormality detected within a given mitotic cell. There are two steps needed to score frequencies of NCCAs and CCAs. First, a 4% cutoff line is used to identify any specific recurrent karyotypes or CCAs. The frequency of a CCA is determined by calculating the number of cells displaying the same CCA divided by the total cells examined (50-100). Non-clonal karyotypes (NCCAs) are classified as having a frequency lower than 4%. The total frequencies of NCCAs of a given cell population is then calculated by using all cells displaying NCCAs divided by the total cells examined.
(§2) 5. A comparison of specific and non-specific drugs that target the same pathway: In order to compare directly the effects of challenging the same molecular pathway with specific or nonspecific drug treatments with regard to genome system stability and evolution, the protein degradation pathway was chosen. Two proteasome inhibitors, Bortezomib (also named Velcade or PS-341) and MG132 were used. […] Compared to 132, Bortezomib is more specific. Two breast cancer cell lines, MDA-MB-231 and BT549, were used for this comparison. […] After a few weeks culture, there seemed to be no drastic changes in terms of the formation of new karyotypes.

MDA-MB-231 = test: as above; type: cell-based; conditions: immediately following treatment
Excerpt: as §1, §2

ER stress pathways = test: ER stress agents, western blot and SKY analysis of NCCAs; type: cell-based; conditions: for NCCA levels: SKY analysis following a short period of culture; for ER stress pathway activation: western blot analysis following the drug treatment
Excerpt: The inventors herein then determined to use a more defined stress condition to validate the link between the stress and the genome evolution. Since the endoplasmic reticulum (ER) has an important role in sensing cellular stress, and the ER stress is well studied, the inventors hypothesize that the defined ER stress will also generate elevated NCCAs leading to the formation of new karyotypes. Specific agents were used to target specific pathways of ER stress including tharpsigargin, tunicamycin and DTT. Tunicamycin interferes with glycalation and results in induction of ER stress. Tharpsigargin inhibits the endoplasmic reticulum calcium ATPase, and results in the release of calcium from the ER, and DTT induces reductive stress through its activity in breaking disulfide bonds which leads to induction of the unfolded protein response. […] As illustrated, the specific ER stress pathways were indeed active in three treatments.

[1] = system: cisplatin resistance cell line; test: SKY analysis of NCCAs after Bcl-2 inhibitor treatment; type: cell-based
Excerpt: as §1
4. […] To examine this issue, TW-37, a small-molecule inhibitor drug that specifically binds to and inhibits Bcl-2 was used in a cisplatin resistance cell line that was previously tested. Under treatment conditions resulting in 50% cell death, surviving cells of two cell lines were followed with SKY analysis. […]

HCT116 p53−/− cells [2] = test: Mitotic catastrophe model, aphidicolin, scored for chromosome fragmentation; type: cell-based; conditions: for mitotic fraction: conventional cytogenetic analysis
Description: (§3) Induction of mitotic catastrophe. Mitotic catastrophe was induced as herein described. HCT116 14-3-3−/− cells were treated for up to 72 h with 2 μg/mL doxorubicin and HCT116 p53−/−. The cells were treated with 1 μg/mL aphidicolin for up to 96 h and were each harvested every 24 h. Cytogenetic preparations and cytospin preparations were made allowing for chromosomal and morphologic analysis.
(§4) The present mitotic cell death process differs from previously described mitotic catastrophe. Mitotic catastrophe has been loosely defined as cell death that results from aberrant mitoses. […] Not only do the definitions of mitotic catastrophe differ but there is also a lack of morphologic characterization of chromosomes from cells undergoing mitotic catastrophe. […] Cells were induced to undergo mitotic catastrophe according to published reports. Half of the cells were prepared using reported protocols and half were prepared according to standard cytogenetic procedure to score chromosome fragmentation frequency.

HCT116 p53−/− cells [3] = conditions: 72 h, reported; cited from earlier work
[4] = system: OV433 and TOV112D cell lines; test: Selection of cisplatin resistant clones, karyotypes by SKY; type: cell-based; conditions: 6-9 months of selection by gradually increased concentrations
Description: 3. Less specific targeted drugs can cause karyotypic changes: A well accepted mechanism of drug resistance acquisition is a specific gene mutation linked to a defined molecular pathway such as the cell death pathway, multiple drug resistance pathway or chromosomal machinery that is responsible for genome integrity. In order to test such a mechanism in the context of genome system evolution, well characterized ovarian cancer cell lines were treated with cisplatin, which is a drug commonly used to treat various types of cancers. The mechanism of this drug is thought to be binding and cross-linking of DNA by platinum complexes, which ultimately triggers apoptosis. The mechanisms of cisplatin resistance have been proposed to include changes in cellular uptake, increased detoxification of the drug, inhibition of apoptosis and increased DNA repair.
The karyotypes were examined by SKY and some key pathways possibly related to the acquisition of drug resistance in the clones were analyzed by western blots.

mitotic cells = test: Induction of chromosome fragmentation (fragmentation index, cytogenetic scoring); type: cell-based
Description: Induction of chromosome fragmentation. After 3 to 8 h treatment of colcemid, mitotic cells were gently shaken off and resuspended in culture medium containing colcemid. Cells were then treated with doxorubicin or methotrexate at 1 μg/mL for various times. Cytogenetic examination. Cells were harvested and cytogenetic slides were prepared using standard protocols. Slides were stained by Giemsa for scoring nuclear structures or stored at −20° C. for further characterization including spectral karyotyping (SKY) and antibody staining. The fragmentation index was determined by dividing the number of cells displaying chromosome fragmentation by the total number of mitotic cells, including cells undergoing chromosome fragmentation.

HCT116 14-3-3−/− cells = test: Mitotic catastrophe model, doxorubicin, scored for chromosome fragmentation; type: cell-based; conditions: low dose of doxorubicin
Description: as §3, §4

cell population = test: High stress drug treatment, NCCAs and karyotypes; type: cell-based; conditions: immediately after treatment of a high dosage
Excerpt: First, the same cell line was used with both “high” and “low” levels of stress applied respectively. High stress was applied through chemo-therapy drug treatments (doxorubicin) (Dox) while low stress was generated by altering culture conditions. […] This was illustrated by the drastically altered karyotypes in every cell examined, which persisted until certain karyotypes became dominant (completing the transition from high levels of NCCAs to specific CCAs) following at least 6 weeks of culture in a drug free medium.

HCT116 cells = test: Caspase inhibition during induced chromosome fragmentation; type: cell-based; conditions: pretreatment with z-vad-fmk, then colcemid and doxorubicin, 6 and 12 h
Description: Cytogenetic examination. Cells were harvested and cytogenetic slides were prepared using standard protocols. Slides were stained by Giemsa for scoring nuclear structures or stored at −20° C. for further characterization including spectral karyotyping (SKY) and antibody staining. The fragmentation index was determined by dividing the number of cells displaying chromosome fragmentation by the total number of mitotic cells, including cells undergoing chromosome fragmentation.
Caspase inhibition. Caspase activity was inhibited by treatment of HCT116 cells for 12 h with […] z-vad-fmk followed induction of chromosome fragmentation (by concurrent treatment with colcemid and 1 μg/mL doxorubicin) for 6 or 12 h in the presence of or after removal of z-vad-fmk. Following treatment, cytogenetic slides were made and scored.

caspase-3 = biological target: T1, caspase-3 (Homo sapiens, UniProt P42574); test: Caspase-3 colorimetric activity assay; type: cell-based; conditions: 20 μmol/L, cells treated with colcemid and doxorubicin
T1 construct: endogenous in cells; host or cells: HCT116
T1 sequence (P42574 29-175 limits assumed): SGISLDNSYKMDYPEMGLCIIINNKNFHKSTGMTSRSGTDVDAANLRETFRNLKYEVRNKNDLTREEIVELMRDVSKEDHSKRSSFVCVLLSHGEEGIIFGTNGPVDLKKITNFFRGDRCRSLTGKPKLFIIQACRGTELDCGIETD
T1 sequence (P42574 176-277 limits assumed): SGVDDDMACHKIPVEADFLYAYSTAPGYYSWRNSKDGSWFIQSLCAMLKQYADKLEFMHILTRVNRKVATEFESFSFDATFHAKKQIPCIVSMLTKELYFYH
Description: Caspase-3 activity. Caspase-3 activity was measured using the caspase-3 colorimetric assay kit from R&D Systems as herein described. HCT116 cells were treated for 8 h with colcemid with and without z-vad-fmk. Mitotic cells were then shaken off and treated with doxorubicin for an additional 6 h and 12 h.

Compound: CC(C)C[C@H](NC(=O)[C@H](Cc1ccccc1)NC(=O)c1cnccn1)B(O)O [Bortezomib]
- NCCA frequencies (BT549): failed to generate increased NCCA frequencies
- NCCAs (MDA-MB-231): showed an increase in NCCAs

Compound: O[C@@H](CS)[C@@H](O)CS [DTT]
- NCCA levels (ER stress pathways): elevated NCCAs were observed
- ER stress pathway activation (ER stress pathways): indeed active

Compound: CC(C)C[C@@H](C=O)NC(=O)[C@H](CC(C)C)NC(=O)[C@H](CC(C)C)NC(=O)OCc1ccccc1 [MG132] (Cbz-Leu-Leu-Leu-aldehyde)
- NCCA frequencies (BT549): failed to generate increased NCCA frequencies
- NCCAs (MDA-MB-231): showed an increase in NCCAs

Compound: CC(C)c1ccccc1Cc1cc(C(=O)Nc2ccc(S(=O)(=O)c3ccccc3C(C)(C)C)cc2)c(O)c(O)c1O [TW-37]
- formation of new karyotypes ([1]; after a few weeks of culture): new stable karyotypes were detected
- frequencies of NCCAs ([1]; treatment conditions resulting in 50% cell death, surviving cells of two cell lines): increased

Compound: C[C@@]1(CO)[C@H](O)CC[C@@]2(C)[C@H]1CC[C@H]1C[C@@H]3C[C@@]12CC[C@]3(O)CO [aphidicolin]
- mitotic fraction (HCT116 p53−/− cells [2]; 72 h): 3.2%
- chromosome breaks (HCT116 p53−/− cells [2]; 96 h): evident in the majority of chromosome spreads
- mitotic fraction (HCT116 p53−/− cells [2]; 96 h): 5.4%
- cells died (HCT116 p53−/− cells [3]): 40%

Compound: N.N.[Cl][Pt][Cl] [cisplatin]
- karyotypes of drug resistant clones [4]: drastically different karyotypes

Compound: COc1cccc2c1C(=O)c1c(O)c3c(c(O)c1C2=O)C[C@@](O)(C(=O)CO)C[C@@H]3O[C@H]1C[C@H](N)[C@H](O)[C@H](C)O1 [doxorubicin]
- induction of chromosome fragmentation (mitotic cells): can induce chromosome fragmentation
- chromosome fragmentation in interphase cells (mitotic cells; interphase cells, doxorubicin and colcemid preceded by a double thymidine block, up to 24 h): no chromosome fragmentation was observed
- mitotic cells showing a degree of chromosome fragmentation (mitotic cells; mitotic shake-off cells arrested with colcemid, concurrent doxorubicin, within 12 h): ~100%
- phosphorylated H3 staining (HCT116 14-3-3−/− cells): only a very small fraction of cells show any positive signal
- chromosome fragmentation (HCT116 14-3-3−/− cells; conventional cytogenetic protocols): chromosome fragmentation was not evident
- level of NCCAs (cell population): a high level of NCCAs was quickly detected

Compound: CN(Cc1cnc2nc(N)nc(N)c2n1)c1ccc(C(=O)N[C@@H](CCC(=O)O)C(=O)O)cc1 [methotrexate]
- induction of chromosome fragmentation (mitotic cells): can induce chromosome fragmentation

Compound: COC(=O)C[C@H](NC(=O)[C@H](C)NC(=O)[C@@H](NC(=O)OCc1ccccc1)C(C)C)C(=O)CF [z-vad-fmk] (Cbz-Val-Ala-Asp(OMe)-CH2F)
- chromosome fragmentation frequency upon caspase inhibition (HCT116 cells): not significantly altered
- caspase-3 reactivity (caspase-3): largely inhibited

Compound: tharpsigargin
- NCCA levels (ER stress pathways): elevated NCCAs were observed
- ER stress pathway activation (ER stress pathways): indeed active

Compound: tunicamycin
- NCCA levels (ER stress pathways): elevated NCCAs were observed
- ER stress pathway activation (ER stress pathways): indeed active
